The target in one assay is TXK (Homo sapiens (Human), UniProt P42681). Description: Kinase inhibition assay (Nanosyn, microfluidic detection), TXK. The assay is classed as biochemical. Conditions: 1 mM ATP, 3 hours at 25° C. The procedure:
The in vitro kinase assays were performed at Nanosyn (Santa Clara, Calif.) utilizing microfluidic detection technology. The test compounds were serially pre-diluted in DMSO and added, by the acoustic dispensing (Labcyte® 550), directly to 384 well assay plates into 10 uL of a buffer with enzyme (ITK, TXK, BTK or TEC) comprising: 100 mM HEPES, pH7.5, 5 mM MgCl2, 0.1% bovine serum albumin, 1 mM DTT, 0.01% Triton X-100 and the enzyme. Final DMSO concentration was maintained at 1% in all samples, including the controls. The reactions were initiated by addition of ATP (1 mM final concentration) and the fluorescently labeled peptide substrate to a final concentration of 1 uM, and incubated for 3 hours at 25° C. Following incubation, the reactions were quenched by addition of 40 μL of termination buffer (100 mM HEPES, pH7.5, 0.01% Triton X-100, 50 mM EDTA). Terminated plates were analyzed using Caliper LabChip® 3000 microfluidic electrophoresis instrument (Caliper Life Sciences/Perkin Elmer). […] As substrate and product are separated by electrophoresis, two peaks of fluorescence are observed. Change in the relative fluorescence intensity of the substrate and product peaks was the parameter measured, reflecting enzyme activity. In the presence of inhibitor, the ratio between product and substrate is altered: signal of the product decreases, while the signal of the substrate increases. Activity in each test sample was determined as the product to sum ratio (PSR): P/(S+P), where P is the peak height of the product and S is the peak height of the […]. For each compound, enzyme activity was measured at 12 concentrations spaced by 3× dilution intervals. Negative control samples (0%-inhibition in the absence of inhibitor, DMSO only) and positive control samples (100%-inhibition, in the absence of enzyme or in the presence of control inhibitor) were assembled in replicates of four and were used to calculate %-inhibition values in the presence of compounds. Percent inhibition (Pinh) was determined using the following equation: Pinh=(PSR0%−PSRinh)/(PSR0%−PSR100%)*100, where PSRinh is the product sum ratio in the presence of inhibitor, PSR0% is the product sum ratio in the absence of inhibitor and PSR100% is the product sum ratio in 100%-inhibition control samples. To determine IC50 values, the inhibition curves (Pinh versus inhibitor concentration) were fitted by 4 parameter sigmoid dose-response model using XLfit software (IDBS).
BTK, sequence (Q06187 whole entry): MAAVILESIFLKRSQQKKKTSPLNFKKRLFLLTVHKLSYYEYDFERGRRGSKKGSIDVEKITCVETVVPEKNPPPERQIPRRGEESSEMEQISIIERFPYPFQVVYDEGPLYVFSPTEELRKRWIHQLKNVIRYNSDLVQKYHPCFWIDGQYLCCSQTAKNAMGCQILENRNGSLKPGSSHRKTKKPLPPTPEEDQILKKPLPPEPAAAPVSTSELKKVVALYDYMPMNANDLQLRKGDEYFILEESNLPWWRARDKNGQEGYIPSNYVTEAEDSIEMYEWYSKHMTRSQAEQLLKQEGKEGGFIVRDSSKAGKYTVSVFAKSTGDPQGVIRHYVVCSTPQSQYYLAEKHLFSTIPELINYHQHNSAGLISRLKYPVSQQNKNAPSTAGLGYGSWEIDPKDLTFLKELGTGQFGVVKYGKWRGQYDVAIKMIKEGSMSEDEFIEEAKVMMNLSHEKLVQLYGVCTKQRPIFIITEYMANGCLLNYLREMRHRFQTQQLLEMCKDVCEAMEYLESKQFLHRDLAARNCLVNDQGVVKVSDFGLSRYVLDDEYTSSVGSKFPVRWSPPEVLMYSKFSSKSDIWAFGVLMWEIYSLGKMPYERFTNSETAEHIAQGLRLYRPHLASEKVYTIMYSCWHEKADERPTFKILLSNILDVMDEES
TXK, sequence (P42681 whole entry): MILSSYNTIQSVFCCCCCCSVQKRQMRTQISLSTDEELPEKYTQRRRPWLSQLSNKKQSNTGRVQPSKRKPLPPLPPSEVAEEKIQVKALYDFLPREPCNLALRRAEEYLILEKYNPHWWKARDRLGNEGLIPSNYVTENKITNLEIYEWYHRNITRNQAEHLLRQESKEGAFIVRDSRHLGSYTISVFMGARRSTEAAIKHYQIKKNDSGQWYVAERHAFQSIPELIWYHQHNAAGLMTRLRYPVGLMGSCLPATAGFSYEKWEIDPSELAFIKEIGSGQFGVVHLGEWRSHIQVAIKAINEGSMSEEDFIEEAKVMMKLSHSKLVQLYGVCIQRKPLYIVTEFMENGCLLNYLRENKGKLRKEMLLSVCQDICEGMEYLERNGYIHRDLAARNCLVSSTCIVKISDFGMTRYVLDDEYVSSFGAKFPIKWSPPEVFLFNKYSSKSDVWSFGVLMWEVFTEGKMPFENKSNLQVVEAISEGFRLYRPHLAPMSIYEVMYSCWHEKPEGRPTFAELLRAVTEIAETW
Turning to `C=CC(=O)N1CC[C@]2(C1)C[C@H](n1c(NC(=O)c3ccc(-c4cc[nH]c(=O)c4)s3)nc3cc(CO)ccc31)C2` [Compound 29], half-maximal inhibition (IC50) was put at 0.27 nM.

With `C=CC(=O)N1CC[C@]2(C1)C[C@H](n1c(NC(=O)c3ccc(NC(=O)C4CCCC4)s3)nc3ccccc31)C2` [Compound 106], the half-maximal inhibitory concentration (IC50) (commonly the midpoint of a concentration-inhibition curve) was determined as 30.1 nM.

In turn, `C=CC(=O)N1CC[C@]2(C1)C[C@H](n1c(NC(=O)c3ccc(C(=O)N4CCCC4)s3)nc3ccccc31)C2` [Compound 102] returned an IC50 of 5.63 nM.

As for `C=CC(=O)N1CC[C@]2(C1)C[C@@H](n1c(NC(=O)c3ccc(C(F)F)s3)nc3ccccc31)C2` [Compound 17], inhibition was half-maximal at 11 nM (IC50).

For `C=CC(=O)N1CC[C@]2(C1)C[C@H](n1c(NC(=O)c3ccc(NC(=O)c4cccnc4)s3)nc3ccccc31)C2` [Compound 111], the IC50 worked out at 64.1 nM.

`C=CC(=O)N1CC[C@]2(C1)C[C@H](n1c(NC(=O)c3ccc(-c4cnco4)s3)nc3c(OC)cccc31)C2` [Compound 87] registered a concentration for half-maximal inhibition (IC50) of 5.72 nM.

In the case of `C=CC(=O)N1CC[C@]2(C1)C[C@H](n1c(NC(=O)c3ccc(-c4nc(C)no4)s3)nc3ccccc31)C2` [Compound 92], the concentration for half-maximal inhibition (IC50) worked out at 64.3 nM.

As to `C=CC(=O)N1CC[C@]2(C1)C[C@H](n1c(NC(=O)c3ccc(-c4ccc(C#N)cc4)s3)nc3ccccc31)C2` [Compound 118], half-maximal inhibition (IC50) required 7.31 nM.

The molecule `C=CC(=O)N1CC[C@]2(C1)C[C@@H](n1c(NC(=O)c3ccc(-c4cnco4)s3)nc3cc(Cl)ccc31)C2` [Compound 71] registered a 50% inhibitory concentration (IC50) of 17.9 nM.

`C=CC(=O)N1CCC[C@]2(C1)C[C@H](n1c(NC(=O)c3ccc(C(F)F)s3)nc3cc(CN[C@@H](C)C(C)(C)C)ccc31)C2` [Compound 9]: the half-inhibitory concentration (IC50) was found to be 0.2 nM.

`C=CC(=O)N1CC[C@]2(C1)C[C@H](n1c(NC(=O)c3ccc(C(=O)OC)s3)nc3ccccc31)C2` [Compound 98]: half-maximal inhibition (IC50) was put at 0.31 nM.

For `C=CC(=O)N1CC[C@]2(C1)C[C@H](n1c(NC(=O)c3ccc(-c4cncnc4)s3)nc3cc(CO)ccc31)C2` [Compound 148], the half-maximal inhibitory concentration (IC50) stood at 0.69 nM.

`C=CC(=O)N1CC[C@]2(C1)C[C@H](n1c(NC(=O)c3ccc(C(=O)N4CCOCC4)s3)nc3ccccc31)C2` [Compound 91] displayed an IC50 of 17.6 nM.

For `C=CC(=O)N1CC[C@]2(C1)C[C@H](n1c(NC(=O)c3ccc(N4CCCC4=O)s3)nc3ccccc31)C2` [Compound 121], the IC50 was 5.48 nM.

`C=CC(=O)N1CC[C@]2(C1)C[C@@H](n1c(NC(=O)c3ccc(-c4cnco4)s3)nc3ccc(Cl)cc31)C2` [Compound 69] registered an IC50 of 7.71 nM.

Take `C=CC(=O)N1CC[C@]2(C1)C[C@H](n1c(NC(=O)c3ccc(-c4noc(C)n4)s3)nc3ccccc31)C2` [Compound 93]: half-maximal inhibition (IC50) was put at 9.88 nM.

`C=CC(=O)N1CCC[C@]2(C1)C[C@@H](n1c(NC(=O)c3ccc(C(F)F)s3)nc3cc(CN[C@@H](C)C(C)(C)C)ccc31)C2` [Compound 10] came in with a concentration for half-maximal inhibition (IC50) of 0.84 nM.

As for `C=CC(=O)N1CC[C@]2(C1)C[C@H](n1c(NC(=O)c3ccc(C(=O)Nc4cccnc4)s3)nc3ccccc31)C2` [Compound 85], half-maximal inhibition (IC50) required 3.15 nM.

In turn, `C=CC(=O)N1CC[C@]2(C1)C[C@H](n1c(NC(=O)c3ccc(-c4cccc(C#N)c4)s3)nc3ccccc31)C2` [Compound 122] gave a concentration for half-maximal inhibition (IC50) of 1.22 nM.

For `C=CC(=O)N1CC[C@]2(C1)C[C@H](n1c(NC(=O)c3ccc(-c4cnco4)s3)nc3ccc(CO)cc31)C2` [Compound 73], 0.26 nM corresponded to half-maximal inhibition (IC50).

The next assay concerns the target BTK (Homo sapiens (Human), UniProt Q06187). In words: Kinase inhibition assay (Nanosyn, microfluidic detection), BTK. The assay is classed as biochemical. Particulars: 1 mM ATP, 3 hours at 25° C. The procedure: The in vitro kinase assays were performed at Nanosyn (Santa Clara, Calif.) utilizing microfluidic detection technology. The test compounds were serially pre-diluted in DMSO and added, by the acoustic dispensing (Labcyte® 550), directly to 384 well assay plates into 10 uL of a buffer with enzyme (ITK, TXK, BTK or TEC) comprising: 100 mM HEPES, pH7.5, 5 mM MgCl2, 0.1% bovine serum albumin, 1 mM DTT, 0.01% Triton X-100 and the enzyme. Final DMSO concentration was maintained at 1% in all samples, including the controls. The reactions were initiated by addition of ATP (1 mM final concentration) and the fluorescently labeled peptide substrate to a final concentration of 1 uM, and incubated for 3 hours at 25° C. Following incubation, the reactions were quenched by addition of 40 μL of termination buffer (100 mM HEPES, pH7.5, 0.01% Triton X-100, 50 mM EDTA). Terminated plates were analyzed using Caliper LabChip® 3000 microfluidic electrophoresis instrument (Caliper Life Sciences/Perkin Elmer). The enzymatic modification of the peptide substrate (phosphorylation) results in a change of net charge enabling electrophoretic separation of product from substrate. As substrate and product are separated by electrophoresis, two peaks of fluorescence are observed. Change in the relative fluorescence intensity of the substrate and product peaks was the parameter measured, reflecting enzyme activity. In the presence of inhibitor, the ratio between product and substrate is altered: signal of the product decreases, while the signal of the substrate increases. Activity in each test sample was determined as the product to sum ratio (PSR): P/(S+P), where P is the peak height of the product and S is the peak height of the […]. For each compound, enzyme activity was measured at 12 concentrations spaced by 3× dilution intervals. Negative control samples (0%-inhibition in the absence of inhibitor, DMSO only) and positive control samples (100%-inhibition, in the absence of enzyme or in the presence of control inhibitor) were assembled in replicates of four and were used to calculate %-inhibition values in the presence of compounds. Percent inhibition (Pinh) was determined using the following equation: Pinh=(PSR0%−PSRinh)/(PSR0%−PSR100%)*100, where PSRinh is the product sum ratio in the presence of inhibitor, PSR0% is the product sum ratio in the absence of inhibitor and PSR100% is the product sum ratio in 100%-inhibition control samples. To determine IC50 values, the inhibition curves (Pinh versus inhibitor concentration) were fitted by 4 parameter sigmoid dose-response model using XLfit software (IDBS).
In turn, `C=CC(=O)N1CC[C@]2(C1)C[C@H](n1c(NC(=O)c3ccc(-c4cc[nH]c(=O)c4)s3)nc3cc(CO)ccc31)C2` [Compound 29] registered a concentration for half-maximal inhibition (IC50) of 0.84 nM.

`C=CC(=O)N1CC[C@]2(C1)C[C@H](n1c(NC(=O)c3cncs3)nc3cc(CN[C@@H](C)C(C)(C)C)ccc31)C2` [Compound 13] returned a half-inhibitory concentration (IC50) of 1.8 nM.

Consider `C=CC(=O)N1CC[C@]2(C1)C[C@H](n1c(NC(=O)c3ccc(-c4cncc(N)c4)s3)nc3ccccc31)C2` [Compound 128], for which the 50% inhibitory concentration (IC50) came out at 0.63 nM.

`C=CC(=O)N1CC[C@]2(C1)C[C@H](n1c(NC(=O)c3ccns3)nc3cc(CN[C@@H](C)C(C)(C)C)ccc31)C2` [Compound 25] registered an IC50 of 0.7 nM.

Take `C=CC(=O)N1CC[C@]2(C1)C[C@@H](n1c(NC(=O)c3ccc(-c4cnco4)s3)nc3cc(F)ccc31)C2` [Compound 68]: the IC50 turned out to be 41.9 nM.

In the case of `C=CC(=O)N1CC[C@]2(C1)C[C@H](n1c(NC(=O)c3ccc(C(F)F)s3)nc3cc(CN[C@@H](C)C(C)(C)C)ccc31)C2` [Compound 2], the half-maximal inhibitory concentration (IC50) was 1.01 nM.

For `C=CC(=O)N1CC[C@]2(C1)C[C@H](n1c(NC(=O)c3ccc(C(F)(F)CO)s3)nc3ccccc31)C2` [Compound 130], the IC50 worked out at 1.06 nM.

`C=CC(=O)N1CC[C@]2(C1)C[C@H](n1c(NC(=O)c3ccc(-c4cc[nH]c(=O)c4)s3)nc3ccccc31)C2` [Compound 97]: half-maximal inhibition (IC50) was put at 0.33 nM.

Take `C=CC(=O)N1CC[C@]2(C1)C[C@H](n1c(NC(=O)c3ccc(C#N)cc3)nc3cc(CN[C@@H](C)C(C)(C)C)ccc31)C2` [Compound 19]: the IC50 is 1.34 nM.

In turn, `C=CC(=O)N1CC[C@]2(C1)C[C@H](n1c(NC(=O)c3ccc(-c4ccnc(C)n4)s3)nc3ccccc31)C2` [Compound 149] showed an IC50 of 0.68 nM.

For `C=CC(=O)N1CC[C@]2(C1)C[C@H](n1c(NC(=O)c3ccc(C(C)(F)F)s3)nc3ccccc31)C2` [Compound 30], the IC50 amounted to 2.11 nM.

`C=CC(=O)N1CC[C@]2(C1)C[C@H](n1c(NC(=O)c3ccc(-c4cnco4)s3)nc3cc(CN[C@H]4CC[C@H](O)CC4)ccc31)C2` [Compound 42] registered an IC50 of 0.53 nM.

Molecule `C=CC(=O)N1CC[C@]2(C1)C[C@H](n1c(NC(=O)c3ccc(-c4cnco4)s3)nc3cc(F)ccc31)C2` [Compound 57] displayed a half-inhibitory concentration (IC50) of 1.09 nM.

In turn, `C=CC(=O)N1CC[C@]2(C1)C[C@H](n1c(NC(=O)c3ccc(C(F)F)s3)nc3cc(CNCC(C)(C)CO)ccc31)C2` [Compound 37] returned an IC50 of 0.95 nM.

`C=CC(=O)N1CC[C@]2(C1)C[C@H](n1c(NC(=O)c3ccc(-c4cnco4)s3)nc3cc(CN[C@@H](C)C(C)(C)C)ccc31)C2` [Compound 4] gave a 50% inhibitory concentration (IC50) of 0.64 nM.

For `C=CC(=O)N1CC[C@]2(C1)C[C@H](n1c(NC(=O)c3ccc(-c4ccnc(NC)c4)s3)nc3ccccc31)C2` [Compound 131], inhibition was half-maximal at 0.46 nM (IC50).

In the case of `C=CC(=O)N1CC[C@]2(C1)C[C@H](n1c(NC(=O)c3ccc(-c4ccnc(N)n4)s3)nc3ccccc31)C2` [Compound 138], inhibition was half-maximal at 0.41 nM (IC50).

Molecule `C=CC(=O)N1CC[C@]2(C1)C[C@H](n1c(NC(=O)c3ccc(-c4cnco4)s3)nc3cc(CNCC(C)(C)CO)ccc31)C2` [Compound 44] gave an IC50 of 0.66 nM.

The molecule `C=CC(=O)N1CC[C@]2(C1)C[C@H](n1c(NC(=O)c3ccc(C(F)F)s3)nc3cc(CN4CCOCC4)ccc31)C2` [Compound 27] showed a half-inhibitory concentration (IC50) of 2.59 nM.

The molecule `C=CC(=O)N1CC[C@]2(C1)C[C@@H](n1c(NC(=O)c3ccc(C(F)F)s3)nc3cc(CN[C@@H](C)C(C)(C)C)ccc31)C2` [Compound 3] displayed a 50% inhibitory concentration (IC50) of 26.8 nM.

(Values after patent US10752615B2, “Spirocyclic containing compounds and pharmaceutical uses thereof” (GB005, Inc., priority 2016, dated 2020).)
